Measurements published in BindingDB's records for PubMed 8100350 (University of Pennsylvania, 1993).
*1 amine or outer side, *2 acyl side, *3 side chain or, on linkers, in order; H or OH if unused. Where a SMILES comes first, the peptide text is derived from it. Bridges are numbered along the chain shown (N, C = ends). [ ]: non-standard residue; d: D form. The star is where a group is joined. ξ: configuration not given here. Phe(4-NO2) = N[C@@H](Cc1ccc([N+](=O)[O-])cc1)C(=O)O; NH(1-naphthylmethyl) = c1ccc2c(CN*)cccc2c1; Phe(4-Cl) = N[C@@H](Cc1ccc(Cl)cc1)C(=O)O; 1Nal = N[CH](Cc1cccc2ccccc12)C(=O)O; 2Nal = N[C@@H](Cc1ccc2ccccc2c1)C(=O)O; d2Nal = N[C@H](Cc1ccc2ccccc2c1)C(=O)O; dThr(3ξ) = CC(O)[C@@H](N)C(=O)O; X1 = O=C(C(N[*:1])S[*:3])[*:2]; Thr(3ξ) = CC(O)[C@H](N)C(=O)O; Thr(ol) = C[CH](O)[CH](N)CO; ξF = NC(Cc1ccccc1)C(=O)O; Abu = CC[C@H](N)C(=O)O; X2 = CC(O)[C@H](CO)N*; Aoc = NCCCCCCCC(=O)O; Ahp = NCCCCCCC(=O)O; Bn = c1ccc(C*)cc1; ξC = NC(CS)C(=O)O; Mpa = O=C(O)CCS

Tests used:
[1] = target: Somatostatin receptor type 1 (Homo sapiens, UniProt P30872)
Chain of Somatostatin receptor type 1 (P30872 whole entry): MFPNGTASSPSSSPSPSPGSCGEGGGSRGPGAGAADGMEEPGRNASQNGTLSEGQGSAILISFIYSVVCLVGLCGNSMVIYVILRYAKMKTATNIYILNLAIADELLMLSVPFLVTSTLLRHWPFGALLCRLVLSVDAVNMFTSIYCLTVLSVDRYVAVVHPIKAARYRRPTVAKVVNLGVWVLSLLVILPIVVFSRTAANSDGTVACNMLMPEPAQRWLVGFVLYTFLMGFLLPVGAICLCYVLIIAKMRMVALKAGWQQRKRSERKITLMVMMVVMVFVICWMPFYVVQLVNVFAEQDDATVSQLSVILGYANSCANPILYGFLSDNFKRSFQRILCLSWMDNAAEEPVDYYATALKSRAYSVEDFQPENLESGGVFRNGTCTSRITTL

[2] = target: Somatostatin receptor type 2 (Mus musculus, UniProt P30875)
Chain of Somatostatin receptor type 2 (P30875 whole entry): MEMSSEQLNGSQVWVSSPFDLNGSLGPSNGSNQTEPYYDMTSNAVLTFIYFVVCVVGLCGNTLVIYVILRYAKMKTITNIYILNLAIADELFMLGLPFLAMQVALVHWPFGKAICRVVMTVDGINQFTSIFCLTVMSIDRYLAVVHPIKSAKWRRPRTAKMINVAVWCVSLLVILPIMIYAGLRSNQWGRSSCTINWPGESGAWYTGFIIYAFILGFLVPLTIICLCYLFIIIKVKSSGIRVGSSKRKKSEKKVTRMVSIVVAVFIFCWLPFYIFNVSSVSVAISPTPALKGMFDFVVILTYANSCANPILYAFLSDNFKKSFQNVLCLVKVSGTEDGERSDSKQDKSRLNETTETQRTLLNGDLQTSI

[3] = target: Somatostatin receptor type 3 (Mus musculus, UniProt P30935)
Chain of Somatostatin receptor type 3 (P30935 whole entry): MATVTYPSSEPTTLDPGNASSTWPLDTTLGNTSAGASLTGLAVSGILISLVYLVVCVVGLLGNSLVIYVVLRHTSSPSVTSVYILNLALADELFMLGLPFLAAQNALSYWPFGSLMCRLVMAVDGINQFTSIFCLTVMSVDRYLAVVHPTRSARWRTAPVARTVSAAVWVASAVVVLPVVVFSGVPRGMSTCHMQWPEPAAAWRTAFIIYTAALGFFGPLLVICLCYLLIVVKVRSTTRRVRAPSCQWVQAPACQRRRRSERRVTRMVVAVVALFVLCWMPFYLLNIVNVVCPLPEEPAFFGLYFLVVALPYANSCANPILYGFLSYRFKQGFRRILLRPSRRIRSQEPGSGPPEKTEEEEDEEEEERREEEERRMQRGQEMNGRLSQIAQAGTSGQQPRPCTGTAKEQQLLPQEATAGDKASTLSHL

| Compound | Ki [1] | Ki [2] | Ki [3] |
| --- | --- | --- | --- |
| CC1NC(=O)C(CCCCN)NC(=O)C(Cc2c[nH]c3ccccc23)NC(=O)C(Cc2ccc(O)cc2)NC(=O)C(NC(=O)C(N)Cc2ccccc2)CSSCC(C(=O)NCc2cccc3ccccc23)NC1=O (centres undefined) [BIM 23034] (H-FCYWKAC-{NH(1-naphthylmethyl)}; disulfide 2-7; configuration not given here) | 1000 nM | 0.002 nM | 65 nM |
| CC(C)[C@@H]1NC(=O)[C@H](CCCCN)NC(=O)[C@@H](Cc2c[nH]c3ccccc23)NC(=O)[C@H](Cc2ccc(O)cc2)NC(=O)CCSSC(C(=O)N[C@@H](Cc2ccccc2)C(N)=O)NC1=O (some centres undefined) [CAS_117580-24-2] ([Mpa]Y[dW]KV[X1]F-NH2; disulfide 1-6) | 1000 nM | 6.1 nM | 133 nM |
| CC(C)[C@H](NC(=O)[C@H](CCCCN)NC(=O)[C@@H](Cc1c[nH]c2ccccc12)NC(=O)[C@H](Cc1ccc(O)cc1)NC(=O)[C@H](Cc1ccc(Cl)cc1)NC(=O)[C@@H](N)Cc1ccccc1)C(=O)N[C@@H](Cc1ccccc1)C(=O)N[C@H](C)C(N)=O [BIM 23064] (H-F[Phe(4-Cl)]Y[dW]KVF[dA]-NH2) | 1000 nM | 948 nM | 34 nM |
| C[C@@H](O)[C@H](NC(=O)[C@H](Cc1ccccc1)NC(=O)[C@@H](NC(=O)[C@H](CCCCN)NC(=O)[C@@H](Cc1c[nH]c2ccccc12)NC(=O)[C@H](Cc1ccc(O)cc1)NC(=O)[C@H](Cc1ccc(Cl)cc1)NC(=O)[C@H](N)Cc1ccccc1)[C@@H](C)O)C(N)=O [BIM 23068] (H-[dF][Phe(4-Cl)]Y[dW]KTFT-NH2) | 1000 nM | 0.15 nM | 0.8 nM |
| CC(C)[C@H](NC(=O)[C@H](CCCCN)NC(=O)[C@@H](Cc1c[nH]c2ccccc12)NC(=O)[C@H](Cc1ccc(O)cc1)NC(=O)[C@H](C)NC(=O)[C@H](N)Cc1ccccc1)C(=O)N[C@@H](C)C(=O)N[C@H](Cc1ccc2ccccc2c1)C(N)=O [D-Phe-AIa-Tyr-D-Trp-Lys-Val-Ala-D-Nal-NH2] (H-[dF]AY[dW]KVA[d2Nal]-NH2) | 146 nM | 60 nM | 65 nM |
| CC[C@@H]1NC(=O)[C@H](CCCCN)NC(=O)[C@@H](Cc2c[nH]c3ccccc23)NC(=O)[C@H](Cc2ccc(O)cc2)NC(=O)[C@@H](NC(=O)[C@H](N)Cc2ccccc2)CSSC[C@@H](C(=O)N[C@H](C(N)=O)[C@@H](C)O)NC1=O [D-Phe-L-Cys(1)-L-Tyr-D-Trp-L-Lys-L-Abu-L-Cys(1)-L-Thr-NH2] | 1000 nM | 0.001 nM | 13.5 nM |
| CC(C)[C@H](NC(=O)[C@H](CCCCN)NC(=O)[C@@H](Cc1c[nH]c2ccccc12)NC(=O)[C@H](Cc1ccc(O)cc1)NC(=O)[C@H](Cc1ccc([N+](=O)[O-])cc1)NC(=O)[C@H](N)Cc1ccccc1)C(=O)N[C@@H](Cc1ccccc1)C(=O)N[C@H](C(N)=O)[C@@H](C)O [BIM 23066] (H-[dF][Phe(4-NO2)]Y[dW]KVFT-NH2) | 1000 nM | 3.1 nM | 1.1 nM |
| NCCCC[C@@H]1NC(=O)[C@@H](Cc2c[nH]c3ccccc23)NC(=O)[C@H](Cc2ccccc2)NC(=O)CCCCCCNC(=O)[C@H](COCc2ccccc2)NC1=O [c[Aha-Phe-D-Trp-Lys-Ser(Bzl)]] (cyclo([Ahp]F[dW]KS(Bn))) | 80 nM | 1000 nM | 214 nM |
| C[C@@H](O)[C@@H]1NC(=O)[C@H](CCCCN)NC(=O)[C@@H](Cc2c[nH]c3ccccc23)NC(=O)[C@H](Cc2c[nH]c3ccccc23)NC(=O)[C@H](Cc2ccccc2)NC(=O)CCCCCCNC(=O)[C@H](Cc2ccccc2)NC1=O [L-362855] (cyclo([Ahp]FW[dW]KTF)) | 1000 nM | 29 nM | 30 nM |
| C[C@@H](O)[C@H](NC(=O)[C@@H]1CSSC[C@H](NC(=O)[C@H](N)Cc2ccc3ccccc3c2)C(=O)N[C@@H](Cc2ccc(O)cc2)C(=O)N[C@H](Cc2c[nH]c3ccccc23)C(=O)N[C@@H](CCCCN)C(=O)N[C@@H]([C@@H](C)O)C(=O)N1)C(N)=O [D-Nal-c[Cys-Tyr-D-Trp-Lys-Thr-Cys]-Thr-NH2] | 1000 nM | 0.008 nM | 7.1 nM |
| CC(O)[C@H](NC(=O)[C@H](CCCCN)NC(=O)[C@@H](Cc1c[nH]c2ccccc12)NC(=O)[C@H](Cc1ccccc1)NC(=O)[C@@H](C)NC(=O)[C@@H](N)Cc1ccccc1)C(=O)N[C@@H](C)C(=O)N[C@H](C(N)=O)[C@@H](C)O (some centres undefined) [BIM 23051] (H-F[dA]F[dW]K[Thr(3ξ)]AT-NH2) | 1000 nM | 836 nM | 72 nM |
| C[C@@H]1NC(=O)[C@@H]2CCCN2C(=O)[C@H](Cc2ccccc2)NC(=O)[C@H]([C@@H](C)O)NC(=O)[C@H](CCCCN)NC(=O)[C@@H](Cc2c[nH]c3ccccc23)NC1=O [cyclo(Pro-Ala-Trp-Lys-Thr-Phe)] (cyclo(A[dW]KTFP)) | 1000 nM | 356 nM | 244 nM |
| CC(C)[C@@H]1NC(=O)[C@H](CCCCN)NC(=O)[C@@H](Cc2c[nH]c3ccccc23)NC(=O)[C@H](Cc2ccc(O)cc2)NC(=O)[C@H](C)N(C)C(=O)[C@H](Cc2ccccc2)NC1=O [CAS_3086456] | – | 0.18 nM | 12 nM |
| CC(O)C1NC(=O)C(CCCCN)NC(=O)C(Cc2c[nH]c3ccccc23)NC(=O)C(Cc2ccc(O)cc2)NC(=O)C(NC(=O)C(N)Cc2ccccc2)CSSCC(C(=O)NCc2cccc3ccccc23)NC1=O (centres undefined) [BIM 23060] (H-FCYWKTC-{NH(1-naphthylmethyl)}; disulfide 2-7; configuration not given here) | 1000 nM | 0.01 nM | 17.4 nM |
| CC(C)[C@H](NC(=O)[C@H](CCCCN)NC(=O)[C@@H](Cc1c[nH]c2ccccc12)NC(=O)[C@H](Cc1ccc(O)cc1)NC(=O)[C@H](C)NC(=O)[C@H](N)Cc1ccccc1)C(=O)N[C@@H](C)C(=O)N[C@@H](Cc1ccc2ccccc2c1)C(N)=O [L-Alaninamide,D-phenylalanyl-L-alanyl-L-tyrosyl-D-tryptophyl-L-lysyl-L-valyl-L-alanyl-3-(2-naphthalenyl)-(9CI)] (H-[dF]AY[dW]KVA[2Nal]-NH2) | 1000 nM | 6.1 nM | 152 nM |
| CC(C)[C@H](NC(=O)[C@H](CCCCN)NC(=O)[C@@H](Cc1c[nH]c2ccccc12)NC(=O)[C@H](Cc1ccc(O)cc1)NC(=O)[C@H](Cc1ccc(Cl)cc1)NC(=O)[C@@H](N)Cc1ccccc1)C(=O)N[C@@H](Cc1ccccc1)C(=O)N[C@@H](Cc1ccc2ccccc2c1)C(N)=O [BIM 23063] (H-F[Phe(4-Cl)]Y[dW]KVF[2Nal]-NH2) | 1000 nM | 248 nM | 81 nM |
| CC(C)[C@@H]1NC(=O)[C@H](CCCCN)NC(=O)[C@@H](Cc2c[nH]c3ccccc23)NC(=O)[C@H](Cc2ccc(O)cc2)NC(=O)[C@@H](NC(=O)[C@H](N)Cc2ccc3ccccc3c2)CSSC[C@@H](C(=O)N[C@@H](Cc2ccc3ccccc3c2)C(N)=O)NC1=O [BIM 23042] (H-[d2Nal]CY[dW]KVC[2Nal]-NH2; disulfide 2-7) | 1000 nM | 4.2 nM | 207 nM |
| C[C@@H](OCc1ccccc1)[C@@H]1NC(=O)[C@H](CCCCN)NC(=O)[C@@H](Cc2c[nH]c3ccccc23)NC(=O)[C@H](Cc2ccccc2)NC(=O)CCCCCCCNC1=O [c[Aoc-Phe-D-Trp-Lys-Thr(Bzl)]] (cyclo([Aoc]F[dW]KT(Bn))) | 700 nM | 1000 nM | 101 nM |
| CC(O)[C@H](NC(=O)[C@H](CCCCN)NC(=O)[C@@H](Cc1c[nH]c2ccccc12)NC(=O)[C@H](Cc1ccc(O)cc1)NC(=O)[C@@H](C)NC(=O)[C@@H](N)Cc1ccccc1)C(=O)N[C@@H](C)C(=O)N[C@@H](Cc1cccc2ccccc12)C(N)=O (some centres undefined) [BIM 23070] (H-F[dA]Y[dW]K[Thr(3ξ)]A[1Nal]-NH2) | 1000 nM | 7.8 nM | 111 nM |
| C[C@@H](O)[C@@H]1NC(=O)[C@H](Cc2ccccc2)NC(=O)[C@H]([C@@H](C)O)NC(=O)[C@H](CCCCN)NC(=O)[C@@H](Cc2c[nH]c3ccccc23)NC(=O)[C@H](Cc2ccccc2)NC(=O)[C@H](Cc2ccc(Cl)cc2)NC(=O)[C@H](CC(N)=O)NC(=O)[C@H](CCCCN)NC(=O)[C@@H](N)CSSC[C@@H](C(=O)O)NC(=O)[C@H](CO)NC1=O [EC5-21] (H-CKN[Phe(4-Cl)]F[dW]KTFTSC-OH; disulfide 1-12) | – | 0.005 nM | 2.1 nM |
| C[C@@H](O)[C@@H]1NC(=O)[C@H](CCCCN)NC(=O)[C@@H](Cc2c[nH]c3ccccc23)NC(=O)[C@H](Cc2ccc(Cl)cc2)NC(=O)[C@H](Cc2ccccc2)NC(=O)CCCCCCNC(=O)[C@H](Cc2ccccc2)NC1=O [L-362862] (cyclo([Ahp]F[Phe(4-Cl)][dW]KTF)) | 580 nM | 8.3 nM | 24 nM |
| CC(C)C1NC(=O)C(CCCCN)NC(=O)C(Cc2c[nH]c3ccccc23)NC(=O)C(Cc2ccc(O)cc2)NC(=O)C(NC(=O)C(N)Cc2cccc3ccccc23)CSSCC(C(=O)NC(CO)C(C)O)NC1=O (centres undefined) [DC23-60] (H-[1Nal]CYWKVC[Thr(ol)]; disulfide 2-7; configuration not given here) | 241 nM | 0.93 nM | 166 nM |
| C[C@H](N)C(=O)NCC(=O)N[C@H]1CSSC[C@@H](C(=O)O)NC(=O)[C@H](CO)NC(=O)[C@H]([C@@H](C)O)NC(=O)[C@H](Cc2ccccc2)NC(=O)[C@H]([C@@H](C)O)NC(=O)[C@H](CCCCN)NC(=O)[C@@H](Cc2c[nH]c3ccccc23)NC(=O)[C@H](Cc2ccccc2)NC(=O)[C@H](Cc2ccccc2)NC(=O)[C@H](CC(N)=O)NC(=O)[C@H](CCCCN)NC1=O [SRIF-D-Trp8] | – | 0.005 nM | – |
| CC[C@H](NC(=O)[C@@H](N)Cc1ccc(Cl)cc1)C(=O)N[C@@H](Cc1ccc(O)cc1)C(=O)N[C@H](Cc1c[nH]c2ccccc12)C(=O)N[C@@H](CCCCN)C(=O)N[C@H](C(=O)N[C@@H](C)C(=O)N[C@H](Cc1ccccc1)C(N)=O)C(C)C [BIM 23067] (H-[Phe(4-Cl)][Abu]Y[dW]KVA[dF]-NH2) | – | 135 nM | 123 nM |
| CC(O)[C@H](CO)NC(=O)[C@@H]1CSSCC(NC(=O)C(N)Cc2ccccc2)C(=O)N[C@H](Cc2ccccc2)C(=O)N[C@H](Cc2c[nH]c3ccccc23)C(=O)N[C@H](CCCCN)C(=O)N[C@H](C(C)O)C(=O)N1 (some centres undefined) (H-[ξF][ξC][dF][dW][dK][dThr(3ξ)]C-X2; disulfide 2-7) | – | 2.4 nM | 3 nM |
